The text below walks through data of US10065963B2 (Incyte Corporation, priority 2015, dated 2018).

Molecules are shown by their SMILES. Counter-ions that a name gives are not always drawn.

Assay [1] concerns Phosphorylated Ribosomal Protein S6 (RPS6) in THP-1 cells. Description: THP-1 RPS6 ELISA assay. Particulars: Homo sapiens, THP-1, THP-1 cells, 10 nM MCP-1; read-out: PI3Kγ_THP1_RPS6_ELISA IC50. It counts as cell-based, human. In general terms: An ELISA detects its analyte on a solid surface through an enzyme-linked reagent.
Assay [2] addresses PI3Kδ (p110δ/p85α) Recombinant Human Protein (Homo sapiens (Human), UniProt O00329). Description: PI3Kδ scintillation proximity assay. In kind it is biochemical. Particulars: 2 μM ATP, 20 μM PIP2.
The target of assay [3] is PI3Kγ (p110γ) Recombinant Human Protein (Homo sapiens (Human), UniProt P48736). Description: PI3K-γ scintillation proximity assay. Particulars: 2 μM ATP, 20 μM PIP2. In kind it is biochemical. (SPA uses beads or plates that emit light when radiolabelled molecules are held near them.)
PI3Kγ (p110γ) Recombinant Human Protein, sequence (P48736 whole entry): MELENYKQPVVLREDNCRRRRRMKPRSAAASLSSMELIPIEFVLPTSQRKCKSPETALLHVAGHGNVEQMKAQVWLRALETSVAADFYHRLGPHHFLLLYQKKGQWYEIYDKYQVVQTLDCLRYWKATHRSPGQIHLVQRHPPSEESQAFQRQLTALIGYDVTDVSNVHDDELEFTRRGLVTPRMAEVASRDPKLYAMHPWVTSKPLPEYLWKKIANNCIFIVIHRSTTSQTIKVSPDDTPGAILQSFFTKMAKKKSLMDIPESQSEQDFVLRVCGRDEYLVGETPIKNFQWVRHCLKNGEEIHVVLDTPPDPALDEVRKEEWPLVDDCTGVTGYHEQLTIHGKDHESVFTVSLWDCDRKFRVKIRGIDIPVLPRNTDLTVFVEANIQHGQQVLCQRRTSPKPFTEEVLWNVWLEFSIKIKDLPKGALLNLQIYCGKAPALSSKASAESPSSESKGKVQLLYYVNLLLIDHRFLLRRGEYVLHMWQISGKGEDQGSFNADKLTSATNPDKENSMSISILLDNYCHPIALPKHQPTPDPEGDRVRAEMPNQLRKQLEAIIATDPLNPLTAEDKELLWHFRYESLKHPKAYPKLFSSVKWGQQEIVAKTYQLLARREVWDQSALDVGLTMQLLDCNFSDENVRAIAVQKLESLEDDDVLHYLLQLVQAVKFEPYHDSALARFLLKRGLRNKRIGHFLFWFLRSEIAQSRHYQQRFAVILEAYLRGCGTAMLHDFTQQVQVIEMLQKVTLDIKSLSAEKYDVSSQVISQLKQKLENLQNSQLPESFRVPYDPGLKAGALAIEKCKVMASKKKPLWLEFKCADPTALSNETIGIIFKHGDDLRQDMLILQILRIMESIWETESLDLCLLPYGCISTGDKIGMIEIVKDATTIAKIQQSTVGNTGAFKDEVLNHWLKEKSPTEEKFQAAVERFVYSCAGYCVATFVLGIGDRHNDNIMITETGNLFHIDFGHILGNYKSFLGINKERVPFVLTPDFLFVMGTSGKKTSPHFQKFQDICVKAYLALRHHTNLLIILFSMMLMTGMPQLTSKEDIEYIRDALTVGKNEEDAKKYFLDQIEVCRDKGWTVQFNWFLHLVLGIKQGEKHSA

PI3Kδ (p110δ/p85α) Recombinant Human Protein, sequence (O00329 whole entry): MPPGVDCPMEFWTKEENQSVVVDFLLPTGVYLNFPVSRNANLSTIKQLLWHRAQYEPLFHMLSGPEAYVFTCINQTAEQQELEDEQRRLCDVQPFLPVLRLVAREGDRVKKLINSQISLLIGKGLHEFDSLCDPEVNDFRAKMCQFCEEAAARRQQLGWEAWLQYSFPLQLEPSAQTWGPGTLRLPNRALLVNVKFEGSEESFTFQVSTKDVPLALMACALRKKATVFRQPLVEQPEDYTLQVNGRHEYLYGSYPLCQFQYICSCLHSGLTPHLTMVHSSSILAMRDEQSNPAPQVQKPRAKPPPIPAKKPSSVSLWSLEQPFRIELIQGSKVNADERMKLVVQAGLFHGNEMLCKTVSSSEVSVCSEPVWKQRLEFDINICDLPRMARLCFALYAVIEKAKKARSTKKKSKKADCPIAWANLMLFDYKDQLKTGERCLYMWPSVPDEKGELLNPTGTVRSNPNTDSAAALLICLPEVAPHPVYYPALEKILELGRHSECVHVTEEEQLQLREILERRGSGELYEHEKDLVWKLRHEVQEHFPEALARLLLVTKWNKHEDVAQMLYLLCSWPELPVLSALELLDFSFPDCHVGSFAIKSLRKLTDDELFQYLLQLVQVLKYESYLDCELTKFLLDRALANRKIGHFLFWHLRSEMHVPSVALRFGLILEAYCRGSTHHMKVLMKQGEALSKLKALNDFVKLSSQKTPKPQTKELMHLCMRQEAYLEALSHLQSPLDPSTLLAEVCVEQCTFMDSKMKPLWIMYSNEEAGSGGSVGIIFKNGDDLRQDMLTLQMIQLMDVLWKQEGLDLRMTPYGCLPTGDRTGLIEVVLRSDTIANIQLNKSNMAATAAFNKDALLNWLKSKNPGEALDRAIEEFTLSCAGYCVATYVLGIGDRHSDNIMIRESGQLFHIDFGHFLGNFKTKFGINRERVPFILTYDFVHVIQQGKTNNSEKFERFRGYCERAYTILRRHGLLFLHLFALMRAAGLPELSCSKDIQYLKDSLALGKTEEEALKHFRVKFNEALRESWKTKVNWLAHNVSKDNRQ
PI3Kδ (p110δ/p85α) Recombinant Human Protein, sequence (P27986 whole entry partner): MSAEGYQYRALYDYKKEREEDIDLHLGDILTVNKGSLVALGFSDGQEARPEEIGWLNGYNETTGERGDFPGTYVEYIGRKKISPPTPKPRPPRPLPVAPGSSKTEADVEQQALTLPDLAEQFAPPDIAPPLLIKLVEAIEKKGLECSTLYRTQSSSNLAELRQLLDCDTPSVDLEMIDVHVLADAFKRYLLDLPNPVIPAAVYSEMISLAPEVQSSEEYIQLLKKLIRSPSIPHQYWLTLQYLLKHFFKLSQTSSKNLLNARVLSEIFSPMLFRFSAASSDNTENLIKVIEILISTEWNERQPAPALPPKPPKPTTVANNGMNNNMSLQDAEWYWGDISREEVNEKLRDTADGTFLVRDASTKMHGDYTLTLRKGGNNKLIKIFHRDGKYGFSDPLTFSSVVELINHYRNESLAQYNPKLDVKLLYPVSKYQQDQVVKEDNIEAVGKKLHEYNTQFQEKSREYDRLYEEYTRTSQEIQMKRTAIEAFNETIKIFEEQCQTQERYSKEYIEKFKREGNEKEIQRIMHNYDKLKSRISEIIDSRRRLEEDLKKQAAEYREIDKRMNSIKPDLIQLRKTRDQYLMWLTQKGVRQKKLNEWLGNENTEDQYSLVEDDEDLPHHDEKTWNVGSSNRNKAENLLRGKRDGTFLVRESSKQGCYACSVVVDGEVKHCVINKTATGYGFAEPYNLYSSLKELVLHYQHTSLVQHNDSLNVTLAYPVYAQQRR

In the case of `CCOc1c(C(C)NC(=O)c2c(N)nn3cccnc23)cc(Cl)c2cnn(C)c12` (stereo not drawn), the IC50 (commonly the point on the concentration scale where inhibition reaches its midpoint) in assay [1] is < 500 nM.
As to `CC(NC(=O)c1c(N)nn2cccnc12)c1cc(Cl)c2cncn2c1N1CCC(C#N)C1` (racemic) [Example 32, 2-Amino-N-(1-(8-chloro-5-(3-cyanopyrrolidin-1-yl)imidazo[1,5-a]pyridin-6-yl)ethyl)pyrazolo[1,5-a]pyrimidine-3-carboxamide trifluoroacetate salt], the IC50 is < 500 nM in assay [1], < 100 nM in assay [2] and < 100 nM in assay [3].
Regarding `CC(NC(=O)c1c(N)nn2cccnc12)c1cc(Cl)c2cncn2c1N1C[C@H](O)[C@@H](F)C1` (mixture of isomers) [Example 35, 2-Amino-N-(1-(8-chloro-5-((3S,4S)-3-fluoro-4-hydroxypyrrolidin-1-yl)imidazo[1,5-a]pyridin-6-yl)ethyl)pyrazolo[1,5-a]pyrimidine-3-carboxamide trifluoroacetate salt], the results for the IC50 in assay [1], in assay [2] and in assay [3] were < 500 nM, < 100 nM and < 100 nM, respectively.
`CC(NC(=O)c1c(N)nn2cccnc12)c1cc(Cl)c2cn[nH]c2c1N1CCC(O)C1` (racemic) [Example 90A, 2-Amino-N-{1-[4-chloro-7-(3-hydroxypyrrolidin-1-yl)-2H-indazol-6-yl]ethyl}pyrazolo[1,5-a]pyrimidine-3-carboxamide bis(trifluoroacetate)]: the IC50 in assay [1] is < 500 nM; in assay [2] it was < 500 nM; in assay [3], < 100 nM.
On to `Cc1ncc2c(Cl)cc(C(C)NC(=O)c3c(N)nn4cccnc34)c(-c3cn[nH]c3)n12` (racemic) [Example 118, 2-Amino-N-{1-[8-chloro-3-methyl-5-(1H-pyrazol-4-yl)imidazo[1,5-a]pyridin-6-yl]ethyl}pyrazolo[1,5-a]pyrimidine-3-carboxamide trifluoroacetate salt], for which the figures for the IC50 in assay [1], in assay [2] and in assay [3] were < 500 nM, < 100 nM and < 100 nM, respectively.
Take `Cc1ncc2c(Cl)cc(C(C)NC(=O)c3c(N)nn4cccnc34)c(-c3cnn(C)c3)n12` (racemic) [Example 119, 2-Amino-N-{1-[8-chloro-3-methyl-5-(1-methyl-1H-pyrazol-4-yl)imidazo[1,5-a]pyridin-6-yl]ethyl}pyrazolo[1,5-a]pyrimidine-3-carboxamide trifluoroacetate salt]: the values for the IC50 in assay [1], in assay [2] and in assay [3] were < 500 nM, < 500 nM and < 100 nM, respectively.
With `Cc1ncc2c(Cl)cc(C(C)NC(=O)c3c(N)nn4cccnc34)c(-c3cccnc3)n12` (racemic) [Example 120, 2-Amino-N-[1-(8-chloro-3-methyl-5-pyridin-3-ylimidazo[1,5-a]pyridin-6-yl)ethyl]pyrazolo[1,5-a]pyrimidine-3-carboxamide trifluoroacetate salt], the results for the IC50 in assay [1], in assay [2] and in assay [3] were < 500 nM, < 100 nM and < 100 nM, respectively.
As for `Cc1ncc2c(Cl)cc(C(C)NC(=O)c3c(N)nn4cccnc34)c(-c3ccccc3)n12` (racemic) [Example 121, 2-Amino-N-[1-(8-chloro-3-methyl-5-phenylimidazo[1,5-a]pyridin-6-yl)ethyl]pyrazolo[1,5-a]pyrimidine-3-carboxamide trifluoroacetate salt], the results for the IC50 in assay [1], in assay [2] and in assay [3] were < 500 nM, < 500 nM and < 100 nM, respectively.
Turning to `Cc1nc(Cl)c2c(Cl)cc(C(C)NC(=O)c3c(N)nn4cccnc34)c(-c3cn[nH]c3)n12` (racemic) [Example 122, 2-Amino-N-{1-[1,8-dichloro-3-methyl-5-(1H-pyrazol-4-yl)imidazo[1,5-a]pyridin-6-yl]ethyl}pyrazolo[1,5-a]pyrimidine-3-carboxamide trifluoroacetate salt], the 50% inhibitory concentration (IC50) in assay [1] is < 500 nM; in assay [2], < 100 nM; in assay [3], < 100 nM.
For the compound `Cc1nc(F)c2c(Cl)cc(C(C)NC(=O)c3c(N)nn4cccnc34)c(-c3cn[nH]c3)n12` (racemic) [Example 123, 2-Amino-N-{1-[8-chloro-1-fluoro-3-methyl-5-(1H-pyrazol-4-yl)imidazo[1,5-a]pyridin-6-yl]ethyl}pyrazolo[1,5-a]pyrimidine-3-carboxamide trifluoroacetate salt], the IC50 in assay [1] was < 500 nM; in assay [2], < 100 nM; in assay [3], < 100 nM.
As to `Cc1nc(C(F)(F)F)c2c(Cl)cc(C(C)NC(=O)c3c(N)nn4cccnc34)c(-c3ccccc3)n12` (racemic) [Example 124, 2-Amino-N-{1-[8-chloro-3-methyl-5-phenyl-1-(trifluoromethyl)imidazo[1,5-a]pyridin-6-yl]ethyl}pyrazolo[1,5-a]pyrimidine-3-carboxamide trifluoroacetate salt], the half-inhibitory concentration (IC50) in assay [1] is > 1000 nM; in assay [2] it was ≥ 2000 nM; in assay [3], < 500 nM.
With `Cc1nc(C#N)c2c(Cl)cc(C(C)NC(=O)c3c(N)nn4cccnc34)c(-c3ccccc3)n12` (racemic) [Example 125, 2-Amino-N-[1-(8-chloro-1-cyano-3-methyl-5-phenylimidazo[1,5-a]pyridin-6-yl)ethyl]pyrazolo[1,5-a]pyrimidine-3-carboxamide trifluoroacetate salt], the IC50 in assay [1] is < 500 nM; in assay [2], < 500 nM; in assay [3], < 100 nM.
As to `C#Cc1nc(C)n2c(-c3ccccc3)c(C(C)NC(=O)c3c(N)nn4cccnc34)cc(Cl)c12` (racemic) [Example 126, 2-Amino-N-[1-(8-chloro-1-ethynyl-3-methyl-5-phenylimidazo[1,5-a]pyridin-6-yl)ethyl]pyrazolo[1,5-a]pyrimidine-3-carboxamide], the IC50 is < 500 nM in assay [1], < 2000 nM in assay [2] and < 100 nM in assay [3].
As for `CC(NC(=O)c1c(N)nn2cccnc12)c1cc(Cl)c2cncn2c1-c1cccnc1` (racemic) [Example 127, 2-Amino-N-[1-(8-chloro-5-pyridin-3-ylimidazo[1,5-a]pyridin-6-yl)ethyl]pyrazolo[1,5-a]pyrimidine-3-carboxamide trifluoroacetate salt], the IC50 in assay [1] was < 500 nM; in assay [2], < 100 nM; in assay [3], < 100 nM.
Take `CC(NC(=O)c1c(N)nn2cccnc12)c1cc(Cl)c2c(C#N)ncn2c1-c1cccnc1` (racemic) [Example 128, 2-Amino-N-[1-(8-chloro-1-cyano-5-pyridin-3-ylimidazo[1,5-a]pyridin-6-yl)ethyl]pyrazolo[1,5-a]pyrimidine-3-carboxamide trifluoroacetate salt]: the IC50 is > 1000 nM in assay [1], < 2000 nM in assay [2] and < 100 nM in assay [3].
As to `Cc1ncn2c(-c3cccnc3)c(C(C)NC(=O)c3c(N)nn4cccnc34)cc(Cl)c12` (racemic) [Example 129, 2-Amino-N-[1-(8-chloro-1-methyl-5-pyridin-3-ylimidazo[1,5-a]pyridin-6-yl)ethyl]pyrazolo[1,5-a]pyrimidine-3-carboxamide trifluoroacetate salt], the figures for the IC50 in assay [1], in assay [2] and in assay [3] were < 1000 nM, < 2000 nM and < 100 nM, respectively.
Take `CC(NC(=O)c1c(N)nn2cccnc12)c1cc(Cl)c2cn[nH]c2c1-c1ccccc1` (stereo not drawn) [Example 14]: the IC50 in assay [1] was < 1000 nM.
Still for that read-out and setting: as for `CC(NC(=O)c1c(N)nn2cccnc12)c1cc(Cl)c2c(Br)n[nH]c2c1-c1ccccc1` (stereo not drawn) [Example 23], the figure is < 1000 nM; as for `Cc1ncc2c(Cl)cc(C(C)NC(=O)c3c(N)nn4cccnc34)c(-c3cccc(F)c3)n12` (stereo not drawn) [Example 26], < 500 nM.
For `CC(NC(=O)c1c(N)nn2cccnc12)c1cc(Cl)c2cn[nH]c2c1C1=CCN(C(=O)OCc2ccccc2)CC1` (stereo not drawn) [Example 98, Benzyl 4-[6-(1-{[(2-aminopyrazolo[1,5-a]pyrimidin-3-yl)carbonyl]amino}ethyl)-4-chloro-2H-indazol-7-yl]-3,6-dihydropyridine-1(2H)-carboxylate bis(trifluoroacetate)], the IC50 in assay [2] was < 2000 nM; in assay [3], < 500 nM.
As to `CC(NC(=O)c1c(N)nn2cccnc12)c1cc(Cl)c2cn[nH]c2c1C1=CCNCC1` (stereo not drawn) [Example 99, 2-Amino-N-{1-[4-chloro-7-(1,2,3,6-tetrahydropyridin-4-yl)-2H-indazol-6-yl]ethyl}pyrazolo[1,5-a]pyrimidine-3-carboxamide bis(trifluoroacetate)], the IC50 in assay [2] is < 100 nM; in assay [3], < 500 nM.
For `CC(NC(=O)c1c(N)nn2cccnc12)c1cc(Cl)c2cn[nH]c2c1N1CCC(C(=O)N(C)C)CC1` (stereo not drawn) [Example 108, 2-Amino-N-[1-(4-chloro-7-{4-[(dimethylamino)carbonyl]piperidin-1-yl}-2H-indazol-6-yl)ethyl]pyrazolo[1,5-a]pyrimidine-3-carboxamide trifluoroacetate], the IC50 in assay [2] is < 500 nM; in assay [3], < 100 nM.
For `C[C@H](NC(=O)c1c(N)nn2cccnc12)c1cc(Cl)c2c(Cl)ncn2c1N1CCNS(=O)(=O)CC1` [Example 160, 2-Amino-N-{(1S)-1-[1,8-dichloro-5-(1,1-dioxido-1,2,5-thiadiazepan-5-yl)imidazo[1,5-a]pyridin-6-yl]ethyl}pyrazolo[1,5-a]pyrimidine-3-carboxamide trifluoroacetate salt], in that order: < 100 nM and < 100 nM.
For the compound `C[C@H](NC(=O)c1c(N)nn2cccnc12)c1cc(Cl)c2c(Cl)ncn2c1N1CCNC(=O)CC1` [Example 161, 2-Amino-N-{(1S)-1-[1,8-dichloro-5-(5-oxo-1,4-diazepan-1-yl)imidazo[1,5-a]pyridin-6-yl]ethyl} pyrazolo[1,5-a] pyrimidine-3-carboxamide trifluoroacetate salt], the IC50 in assay [2] and in assay [3] was < 100 nM throughout.
Consider `CCCC(NC(=O)c1c(N)nn2cccnc12)c1cc(Cl)c2cncn2c1N1CCS(=O)(=O)CC1` (stereo not drawn) [Example 178, trifluoroacetate salt], for which the IC50 in assay [1] was < 500 nM.
